Laboratory results reported in patent US9169254B2, “Spiroimidazolone derivative” (Chugai Seiyaku Kabushiki Kaisha, priority 2009, dated 2015).

target: T1, human PTH1 receptor (Homo sapiens, UniProt Q03431); test: In vitro cAMP signal activity in HKRK-B7 cells (LLC-PK1 cells overexpressing the human PTH1 receptor); type: cell-based; conditions: HKRK-B7 cells; compound at 1×10^−3 M; cAMP produced as percentage of that produced by hPTH(1-34) at 100 nM
T1 sequence (Q03431 27-593): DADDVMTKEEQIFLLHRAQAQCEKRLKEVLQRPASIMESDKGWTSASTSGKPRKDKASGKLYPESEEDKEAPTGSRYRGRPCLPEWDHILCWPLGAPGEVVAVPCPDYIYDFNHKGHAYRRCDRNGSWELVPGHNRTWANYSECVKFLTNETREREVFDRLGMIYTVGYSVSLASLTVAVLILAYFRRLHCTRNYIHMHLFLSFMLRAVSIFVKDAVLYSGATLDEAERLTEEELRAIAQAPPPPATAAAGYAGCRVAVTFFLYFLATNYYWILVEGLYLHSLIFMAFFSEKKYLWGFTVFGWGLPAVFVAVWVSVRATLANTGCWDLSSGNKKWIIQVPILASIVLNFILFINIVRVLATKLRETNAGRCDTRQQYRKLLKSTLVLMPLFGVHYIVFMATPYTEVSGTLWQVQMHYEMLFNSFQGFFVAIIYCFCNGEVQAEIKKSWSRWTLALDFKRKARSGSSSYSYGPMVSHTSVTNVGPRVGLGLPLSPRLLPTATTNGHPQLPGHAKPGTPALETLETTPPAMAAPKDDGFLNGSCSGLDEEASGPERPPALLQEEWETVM

Point of comparison: `Cc1cc(C(=O)N2CCC(O)CC2)cc(C)c1/C=C/S(=O)(=O)N1CCC2(CC1)N=C(c1ccc(F)c(OCCCC(F)(F)C(F)(F)F)c1)NC2=O` [Compound 1091, 2-[4-Fluoro-3-(4,4,5,5,5-pentafluoro-pentyloxy)-phenyl]-8-{(E)-2-[4-(4-hydroxy-piperidine-1-carbonyl)-2,6-dimethyl-phenyl]-ethenesulfonyl}-1,3,8-triaza-spiro[4.5]dec-1-en-4-one], “cAMP production activity (%)” value 118%. Against it:
- Cc1cc(N(C)C(N)=O)cc(C)c1CC(C)S(=O)(=O)N1CCC2(CC1)N=C(c1cccc(OC(F)(F)F)c1)NC2=O (centres unmarked) [Compound 1090, 1-(3,5-Dimethyl-4-{2-[4-oxo-2-(3-trifluoromethoxy-phenyl)-1,3,8-triaza-spiro[4.5]dec-1-ene-8-sulfonyl]-propyl}-phenyl)-1-methyl-urea] — the same, 118%
- Cc1cc(C(=O)N2CCC(C)(O)CC2)cc(C)c1/C=C/S(=O)(=O)N1CCC2(CC1)N=C(c1ccc(F)c(OCCCC(F)(F)C(F)(F)F)c1)NC2=O [Compound 1092, 2-[4-Fluoro-3-(4,4,5,5,5-pentafluoro-pentyloxy)-phenyl]-8-{(E)-2-[4-(4-hydroxy-4-methyl-piperidine-1-carbonyl)-2,6-dimethyl-phenyl]-ethenesulfonyl}-1,3,8-triaza-spiro[4.5]dec-1-en-4-one] — lower, 89%
- Cc1cc(C(=O)N2CCC(C)(O)CC2)cc(C)c1/C=C/[S@TB4](=O)(=O)N1CCC2(CC1)N=C(c1ccc(Cl)c(OC(F)(F)F)c1)NC2=O [Compound 1093, 2-(4-chloro-3-trifluoromethoxy-phenyl)-8-{(E)-2-[4-(4-hydroxy-4-methyl-piperidine-1-carbonyl)-2,6-dimethyl-phenyl]-ethenesulfonyl}-1,3,8-triaza-spiro[4.5]dec-1-en-4-one] — lower, 100%
- Cc1cc(C(=O)N2CCC(C)(O)CC2)cc(C)c1/C=C/[S@TB4](=O)(=O)N1CCC2(CC1)N=C(c1ccc(OC(F)(F)F)c(F)c1)NC2=O [Compound 1094, 2-(3-fluoro-4-trifluoromethoxy-phenyl)-8-{(E)-2-[4-(4-hydroxy-4-methyl-piperidine-1-carbonyl)-2,6-dimethyl-phenyl]-ethenesulfonyl}-1,3,8-triaza-spiro[4.5]dec-1-en-4-one] — lower, 100%
- Cc1cc(C(=O)N2CCC(C)(O)CC2)cc(C)c1/C=C/[S@TB4](=O)(=O)N1CCC2(CC1)N=C(c1ccc(C(F)(F)F)c(C(F)(F)F)c1)NC2=O [Compound 1095, 2-(3,4-bis-trifluoromethyl-phenyl)-8-{(E)-2-[4-(4-hydroxy-4-methyl-piperidine-1-carbonyl)-2,6-dimethyl-phenyl]-ethenesulfonyl}-1,3,8-triaza-spiro[4.5]dec-1-en-4-one] — lower, 105%
- Cc1cc(C(=O)N2CCC(C)(O)CC2)cc(C)c1/C=C/[S@TB4](=O)(=O)N1CCC2(CC1)N=C(c1cccc(OCCCC(F)(F)C(F)(F)F)c1)NC2=O [Compound 1096, 8-{(E)-2-[4-(4-hydroxy-4-methyl-piperidine-1-carbonyl)-2,6-dimethyl-phenyl]-ethenesulfonyl}-2-[3-(4,4,5,5,5-pentafluoro-pentyloxy)-phenyl]-1,3,8-triaza-spiro[4.5]dec-1-en-4-one] — lower, 93%
- Cc1cc(C(=O)N2CCC(C)(O)CC2)cc(C)c1/C=C/[S@TB4](=O)(=O)N1CCC2(CC1)N=C(c1cccc(CC(F)(F)F)c1)NC2=O [Compound 1097, 8-{(E)-2-[4-(4-hydroxy-4-methyl-piperidine-1-carbonyl)-2,6-dimethyl-phenyl]-ethenesulfonyl}-2-[3-(2,2,2-trifluoro-ethyl)-phenyl]-1,3,8-triaza-spiro[4.5]dec-1-en-4-one] — lower, 90%
- Cc1cc(C2=NC3(CCN([S@TB17](=O)(=O)/C=C/c4c(C)cc(C(=O)N5CCC(C)(O)CC5)cc4C)CC3)C(=O)N2)ccc1F [Compound 1098, 2-(4-fluoro-3-methyl-phenyl)-8-{(E)-2-[4-(4-hydroxy-4-methyl-piperidine-1-carbonyl)-2,6-dimethyl-phenyl]-ethenesulfonyl}-1,3,8-triaza-spiro[4.5]dec-1-en-4-one] — lower, 88%
- Cc1cc(C(=O)N2CCC(C)(O)CC2)cc(C)c1/C=C/[S@TB4](=O)(=O)N1CCC2(CC1)N=C(c1ccc(F)c(OC(F)(F)F)c1)NC2=O [Compound 1099, 2-(4-fluoro-3-trifluoromethoxy-phenyl)-8-{(E)-2-[4-(4-hydroxy-4-methyl-piperidine-1-carbonyl)-2,6-dimethyl-phenyl]-ethenesulfonyl}-1,3,8-triaza-spiro[4.5]dec-1-en-4-one] — lower, 91%
- Cc1cc(C(=O)N2CCC(C)(O)CC2)cc(C)c1/C=C/S(=O)(=O)N1CCC2(CC1)N=C(c1cccc(OC(F)(F)C(F)F)c1)NC2=O [Compound 1100, 8-{(E)-2-[4-(4-Hydroxy-4-methyl-piperidine-1-carbonyl)-2,6-dimethyl-phenyl]-ethenesulfonyl}-2-[3-(1,1,2,2-tetrafluoro-ethoxy)-phenyl]-1,3,8-triaza-spiro[4.5]dec-1-en-4-one] — lower, 76%
- Cc1cc(C(=O)N2CCC(O)CC2)cc(C)c1CC(F)(F)S(=O)(=O)N1CCC2(CC1)N=C(c1cccc(OC(F)(F)F)c1)NC2=O [Compound 1101, 8-{1,1-Difluoro-2-[4-(4-hydroxy-piperidine-1-carbonyl)-2,6-dimethyl-phenyl]-ethanesulfonyl}-2-(3-trifluoromethoxy-phenyl)-1,3,8-triaza-spiro[4.5]dec-1-en-4-one] — lower, 110%
- Cc1cc(C(=O)N2CC(O)C2)cc(C)c1/C=C/S(=O)(=O)N1CCC2(CC1)N=C(c1ccc(F)c(OC(F)(F)F)c1)NC2=O [Compound 1102, 2-(4-Fluoro-3-trifluoromethoxy-phenyl)-8-{(E)-2-[4-(3-hydroxy-azetidine-1-carbonyl)-2,6-dimethyl-phenyl]-ethenesulfonyl}-1,3,8-triaza-spiro[4.5]dec-1-en-4-one] — lower, 10%
- Cc1cc(OC[C@H](O)CO)cc(C)c1/C=C/S(=O)(=O)N1CCC2(CC1)N=C(c1cccc(OCCCC(F)(F)C(F)(F)F)c1)NC2=O [Compound 1103, 8-{(E)-2-[4-((R)-2,3-Dihydroxy-propoxy)-2,6-dimethyl-phenyl]-ethenesulfonyl}-2-[3-(4,4,5,5,5-pentafluoro-pentyloxy)-phenyl]-1,3,8-triaza-spiro[4.5]dec-1-en-4-one] — lower, 5.4%
- CC1CCC(C2=NC3(CN(S(=O)(=O)CCc4cccc5ccccc45)C3)C(=O)N2)CC1 (centres unmarked) [Compound 1104, 6-(4-Methyl-cyclohexyl)-2-(2-naphthalen-1-yl-ethanesulfonyl)-2,5,7-triaza-spiro[3.4]oct-5-en-8-one] — lower, 16%
- CNc1cc(C)c(/C=C/[S@TB3](=O)(=O)N2CCC3(CC2)N=C(CCCCCCCCCCCNC(=O)OC(C)(C)C)NC3=O)c(C)c1 [Compound 1106, (11-{8-[(E)-2-(2,6-dimethyl-4-methylamino-phenyl)-ethenesulfonyl]-4-oxo-1,3,8-triaza-spiro[4.5]dec-1-en-2-yl}-undecyl)-carbamic acid tert-butyl ester] — lower, 58%
- CNc1cc(C)c(/C=C/[S@TB3](=O)(=O)N2CCC3(CC2)N=C(CCCCCCCCCO)NC3=O)c(C)c1 [Compound 1107, 8-[(E)-2-(2,6-dimethyl-4-methylamino-phenyl)-ethenesulfonyl]-2-(9-hydroxy-nonyl)-1,3,8-triaza-spiro[4.5]dec-1-en-4-one] — lower, 24%
